Measurements: patent US12240853B2, “Compounds useful in HIV therapy” (GlaxoSmithKline Intellectual Property (No.2) Limited, priority 2019, dated 2025)
Where two headings read alike, the source gives them in different places.

Test: Example 18 cynomolgus monkey PK study (SC and IM)
Format: in vivo, cynomolgus monkeys
Conditions: male, cynomolgus monkey, plasma, read-out: Example 18 plasma concentrations
Excerpt: Example 18 referenced herein was made in accordance with Synthesis B. Six male cynomolgus monkeys (+1 spare) were selected from the Testing Facility's colony of non-naïve animals. The animals were assigned to the study based on acceptable health as determined by a Testing Facility veterinarian. Six animals were selected and placed into two groups of three animals each. Fasting of the animals before or after dosing was not required.
[…] […] The animals were manually restrained for dosing and were not sedated. The dose sites were clipped of hair and wiped with alcohol before dosing. All dosing was performed as detailed in the study protocol and was completed without incident.
Blood samples were collected from the study animals as detailed in the sample collection Table 39 below.
Blood samples were collected by venipuncture of a cephalic vein. For PK, blood was transferred to a blood collection tube containing NaF/Na2EDTA anticoagulant, mixed by inversion, and maintained on wet ice until processing. The blood samples were centrifuged at 2200×g for 10 minutes at 5° C. to isolate plasma. The resulting plasma samples were transferred to individual polypropylene tubes in a 96-well plate format and immediately placed on dry ice until storage at nominally −20° C. prior to shipment for analysis.
The PK plasma samples were analyzed approximately every two weeks by the Testing Facility to determine the concentration of Example 18 (prodrug) and parent using an LC-MS/MS Research Grade Assay (RGA-1) with sensitivity to 0.1 ng/mL. Following interim review of sample analysis data, analysis for Example 18 (prodrug) was discontinued after the Day 57 sample collections. The bioanalytical report and sample concentration data are presented in Tables 40 and 41, and mean concentration-time profiles are shown in FIGS. 29 and 30

[1] = intramuscular, 20 mg/kg equivalent of EFdA, IM 20 mg/kg equivalent of EFdA, Monkey 2001
[2] = intramuscular, 20 mg/kg equivalent of EFdA, IM 20 mg/kg equivalent of EFdA, Monkey 2002
[3] = intramuscular, 20 mg/kg equivalent of EFdA, IM 20 mg/kg equivalent of EFdA, Monkey 2003
[4] = sc, 20 mg/kg, SC 20 mg/kg equivalent of EFdA, Mean
[5] = sc, 20 mg/kg, SC 20 mg/kg equivalent of EFdA, Monkey 1001
[6] = sc, 20 mg/kg, SC 20 mg/kg equivalent of EFdA, Monkey 1002 (column 3)
[7] = sc, 20 mg/kg, SC 20 mg/kg equivalent of EFdA, Monkey 1002

C#C[C@]1(COC(=O)CCCCCCCCC)O[C@@H](n2cnc3c(N)nc(F)nc32)C[C@@H]1OC(=O)CCCCCCCCC [Example 18, (2R,3S,5R)-5-(6-amino-2-fluoro-9H-purin-9-yl)-2-((decanoyloxy)methyl)-2-ethynyltetrahydrofuran-3-yl Decanoate]
concentration at 0.208 days [1]: 51.3 ng/mL | concentration at 0.292 days [1]: 30.1 ng/mL | concentration at 1 days [1]: 6.89 ng/mL | concentration at 2 days [1]: 0.652 ng/mL | concentration at 3 days [1]: 0.379 ng/mL | concentration at 8 days [1]: 0.203 ng/mL | concentration at 10 days [1]: 0.156 ng/mL | concentration at 17 days [1]: 0.135 ng/mL | concentration at 19 days [1]: 0.119 ng/mL | concentration at 22 days [1]: 0.146 ng/mL | concentration at 29 days [1]: 0.155 ng/mL | concentration at 0.021 days [2]: 40.2 ng/mL | concentration at 0.042 days [2]: 82.6 ng/mL | concentration at 0.125 days [2]: 363 ng/mL | concentration at 0.208 days [2]: 692 ng/mL | concentration at 0.292 days [2]: 821 ng/mL | concentration at 1 days [2]: 110 ng/mL | concentration at 2 days [2]: 0.674 ng/mL | concentration at 3 days [2]: 0.533 ng/mL | concentration at 8 days [2]: 0.248 ng/mL | concentration at 10 days [2]: 0.251 ng/mL | concentration at 17 days [2]: 0.16 ng/mL | concentration at 19 days [2]: 0.149 ng/mL | concentration at 22 days [2]: 0.114 ng/mL | concentration at 25 days [2]: 0.125 ng/mL | concentration at 29 days [2]: 0.135 ng/mL | concentration at 0.021 days [3]: 1.93 ng/mL | concentration at 0.042 days [3]: 0.79 ng/mL | concentration at 0.125 days [3]: 3.31 ng/mL | concentration at 0.208 days [3]: 5.27 ng/mL | concentration at 0.292 days [3]: 6.42 ng/mL | concentration at 1 days [3]: 2.08 ng/mL | concentration at 2 days [3]: 0.387 ng/mL | concentration at 3 days [3]: 0.63 ng/mL | concentration at 8 days [3]: 0.171 ng/mL | concentration at 10 days [3]: 0.19 ng/mL | concentration at 17 days [3]: 0.154 ng/mL | concentration at 19 days [3]: 0.129 ng/mL | concentration at 22 days [3]: 0.113 ng/mL | concentration at 25 days [3]: 0.151 ng/mL | concentration at 46 days (intramuscular, 20 mg/kg equivalent of EFdA, IM 20 mg/kg equivalent of EFdA, Monkey 2003, 46 days): 0.105 ng/mL | concentration at 0.021 days [4]: 0.235 ng/mL | concentration at 0.042 days [4]: 0.905 ng/mL | concentration at 0.125 days [4]: 3.94 ng/mL | concentration at 0.208 days [4]: 4.95 ng/mL | concentration at 0.292 days [4]: 4.53 ng/mL | concentration at 1 days [4]: 1.12 ng/mL | concentration at 2 days [4]: 0.405 ng/mL | concentration at 3 days [4]: 0.312 ng/mL | concentration at 8 days [4]: 0.117 ng/mL | concentration at 10 days [4]: 129 ng/mL | concentration at 0.021 days [5]: 49.4 ng/mL | concentration at 0.042 days [5]: 70.3 ng/mL | concentration at 0.125 days [5]: 149 ng/mL | concentration at 0.208 days [5]: 92.8 ng/mL | concentration at 0.292 days [5]: 146 ng/mL | concentration at 1 days [5]: 36.5 ng/mL | concentration at 2 days [5]: 0.734 ng/mL | concentration at 3 days [5]: 0.694 ng/mL | concentration at 10 days [5]: 0.146 ng/mL | concentration at 0.021 days [6]: 0.133 ng/mL | concentration at 0.042 days [6]: 0.179 ng/mL | concentration at 0.125 days [6]: 2.29 ng/mL | concentration at 0.208 days [6]: 1.91 ng/mL | concentration at 0.292 days [6]: 2.38 ng/mL | concentration at 1 days [6]: 0.641 ng/mL | concentration at 2 days [6]: 0.579 ng/mL | concentration at 3 days [6]: 0.396 ng/mL | concentration at 8 days [6]: 0.131 ng/mL | concentration at 10 days [6]: 0.146 ng/mL | concentration at 0.021 days [7]: 0.337 ng/mL | concentration at 0.042 days [7]: 1.63 ng/mL | concentration at 0.125 days [7]: 5.59 ng/mL | concentration at 0.208 days [7]: 7.99 ng/mL | concentration at 0.292 days [7]: 6.67 ng/mL | concentration at 1 days [7]: 1.6 ng/mL | concentration at 2 days [7]: 0.23 ng/mL | concentration at 3 days [7]: 0.228 ng/mL | concentration at 8 days [7]: 0.102 ng/mL | concentration at 10 days [7]: 0.111 ng/mL
